Laboratory results from patent publication US20120252853A1, “Positive allosteric modulators of nicotinic acetylcholine receptor” (H. Lundbeck A/S, priority 2011, published 2012).

Legend:
[1] = target: human α7 receptor (Homo sapiens, UniProt P36544); assay: α7 NNR flux assay (FDSS Ca assay); assay type: cell-based; conditions: positive allosteric modulation; rat GH4C1 cell line stably expressing human α7; acetylcholine 20 μM; % modulation relative to PNU-120596 set to 100%
In short: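 GH4C1 rat cells stably expressing human α7, loaded with Calcium-4 dye plus 2.5 mM probenecid in HBSS/20 mM HEPES pH 7.4, 3 mM CaCl2. Compounds (0.039–20 μM final) preincubated ~95 s before 20 μM acetylcholine (~EC100); Ex480/Em540 fluorescence on FDSS. Values are % modulation, with 3 μM PNU-120596 set to 100%.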

[2] = target: T1, human KCNQ2 (Homo sapiens, UniProt O43526); assay: 86Rb flux in KCNQ2 expressing cells; assay type: cell-based; conditions: KCNQ2 opening; for EC50: 86Rb efflux, CHO-K1 cells stably transfected with human KCNQ2; for Emax: Max effect determined in % of the effect of 30 mM KCl
T1 construct: expressed in transfected cells
Experimental: Chinese hamster ovary cells (CHO-K1) were stably transfected with human KCNQ2 inserted into the pCl-neo vector (Promega). Cells were plated at 2×10^5 cells/ml in 96-well plates in 100 μl media (MEM Alpha media, 10% FBS, 1% P/S, 1% L-Glu, and 1 mg/ml G418). At the time of plating the cells were furthermore loaded with 1 μCi/ml 86Rb over-night. On the subsequent day, the cells were washed with 3×50 μl assay buffer (HBSS+10 mM HEPES, pH 7.4) and incubated in 50 μl buffer with retigabine for 30 minutes at 37° C. Following this preincubation, the cell membrane was depolarized for 30 minutes at 37° C. with 15 mM KCl (final concentration) in assay buffer supplemented with the appropriate amount of compound to maintain drug concentration. The supernatant was removed and placed in pony-vials with 0.5 ml scintillation liquid and counted. The dose-dependent effect of the investigated compounds on the efflux of 86Rb through the hKCNQ2 channels were calculated according to the four parameter logistic equation: Y=Bottom+(Top-Bottom)/(1+10̂((LogEC50-X)*HillSlope)), where X is the logarithm of concentration, Y is the response, and HillSlope is the hill coefficient.
A representative selection of compounds of the invention were tested in the assay in addition to 6 comparative examples wherein 0 has been substituted with a 6-membered ring comprising up to two N atoms. Comparative 1-4 has been disclosed in WO 2009/127678 or WO 2009/127679 and comparative 5-6 are close analogues.

[3] = test system: α7 nACh receptors expressed in Xenopus oocytes; assay: α7 NNR oocyte assay (electrophysiological recordings); assay type: cell-based, human or rat; conditions: tested subsequently in the oocyte assay
Experimental: Expression of α7 nACh Receptors in Xenopus oocytes.
Oocytes were surgically removed from mature female Xenepus laevis anaesthetized in 0.4% MS-222 for 10-15 min. The oocytes were then digested at room temperature for 2-3 hours with 0.5 mg/ml collagenase (type IA Sigma-Aldrich) in OR2 buffer (82.5 mM NaCl, 2.0 mM KCl, 1.0 mM MgCl2 and 5.0 mM HEPES, pH 7.6). Oocytes avoid of the follicle layer were selected and incubated for 24 hours in Modified Barth's Saline buffer (88 mM NaCl, 1 mM […], 15 mM HEPES, 2.4 mM NaHCO3, 0.41 mM CaCl2, 0.82 mM MgSO4, 0.3 mM Ca(NO3)2) supplemented with 2 mM sodium pyruvate, 0.1 μg/l penicillin and 0.1 μg/l streptomycin. Stage 1V oocytes were identified and injected with 4.2-48 nl of nuclease free water containing 0.1-1.2 ng of cRNA coding for human α7 nACh receptors or 3.0-32 ng of cRNA coding for rat α7 nACh receptors and incubated at 18° C. for 1-10 days when they were used for electrophysiological recordings.
Electrophysiological Recordings of α7 nACh Receptors Expressed in Oocytes.
Oocytes were used for electrophysiological recordings 1-10 days after injection. Oocytes were placed in a 1 ml bath and perfused with Ringer buffer (115 mM NaCl, 2.5 mM KCl, 10 mM HEPES, 1.8 mM CaCl2, 0.1 mM MgCl2, pH 7.5). Cells were impaled with agar plugged 0.2-1 MΩ electrodes containing 3 M KCl and voltage clamped at −90 mV by a GeneClamp 500B amplifier. The experiments were performed at room temperature. Oocytes were continuously perfused with Ringer buffer and the drugs were applied in the perfusate. ACh (30 μM) applied for 30 sec were used as the standard agonist for activation of the α7 nACh receptors. In the standard screening set-up the new test compound (10 μM or 30 μM) were applied for 1 min of pre-application allowing for evaluation of agonistic activity followed by 30 sec of co-application with ACh (30 μM) allowing for evaluation of PAM activity. […] The drug induced effects on both the peak response and the total charge (AUC) response were calculated thus giving the effect of drug induced PAM activity as fold modulation of the control response. […]

Sequence of human α7 receptor (P36544 23-502): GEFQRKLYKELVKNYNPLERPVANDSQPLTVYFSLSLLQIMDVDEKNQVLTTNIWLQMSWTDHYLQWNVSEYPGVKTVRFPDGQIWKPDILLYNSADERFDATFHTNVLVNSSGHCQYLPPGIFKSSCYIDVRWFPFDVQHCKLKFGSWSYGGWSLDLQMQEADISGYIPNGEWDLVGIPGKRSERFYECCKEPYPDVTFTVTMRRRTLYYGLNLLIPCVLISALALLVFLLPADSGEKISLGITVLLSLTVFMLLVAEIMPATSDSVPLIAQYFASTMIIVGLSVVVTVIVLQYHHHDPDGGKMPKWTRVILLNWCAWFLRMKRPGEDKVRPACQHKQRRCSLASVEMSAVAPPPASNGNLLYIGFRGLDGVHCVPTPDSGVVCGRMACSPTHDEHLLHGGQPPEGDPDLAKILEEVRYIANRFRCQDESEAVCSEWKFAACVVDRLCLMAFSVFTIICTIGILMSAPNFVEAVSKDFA

| SMILES | EC50 [1] [µM] | EC50 [2] [µM] | Emax [2] [%] | NNR PAM activity in the oocyte assay compared with the flux assay [3] |
| --- | --- | --- | --- | --- |
| Cn1cc(C(=O)NCc2ccc3[nH]c(C(F)(F)F)cc3c2)cn1 [Compound 30, 1-methyl-N-[[2-(trifluoromethyl)-1H-indol-5-yl]methyl]pyrazole-4-carboxamide] | 5.8 | > 50 | 9.6 |  |
| Cc1cc(C(=O)NCc2ccc3[nH]c(C(F)(F)F)cc3c2)on1 [Compound 65, 3-methyl-N-[[2-(trifluromethyl)-1H-indol-5-yl]methyl]isoxazole-5-carboxamide] | 5 |  | 8.1 |  |
| Cc1cc(C(=O)NCc2ccc3[nH]c(C)cc3c2)on1 [Compound 28, 3-methyl-N-[(2-methyl-1H-indol-5-yl)methyl]isoxazole-5-carboxamide] | 2.97 |  | 5.7 |  |
| Cc1cc(C(=O)NC(C)c2ccc3[nH]c(C(F)(F)F)cc3c2)on1 (single isomer, unassigned) [Compound 96, 3-methyl-N-[1-[2-(trifluoromethyl)-1H-indol-5-yl]ethyl]isoxazole-5-carboxamide] | 4.2 | > 50 | 5.4 |  |
| O=C(NCc1ccc2[nH]c(C(F)(F)F)cc2c1)c1ccno1 [Compound 31, N-[[2-(trifluoromethyl)-1H-indol-5-yl]methyl]isoxazole-5-carboxamide] |  | > 50 | 4.8 |  |
| Cc1cc2cc(CNC(=O)c3cnn(CC(F)(F)F)c3)ccc2[nH]1 [Compound 36, N-[(2-methyl-1H-indol-5-yl)methyl]-1-(2,2,2-trifluoroethyl)pyrazole-4-carboxamide] | 1.49 |  | 3.3 |  |
| CC(C)c1cc(C(=O)NCc2ccc3[nH]c(C(F)(F)F)cc3c2)on1 [Compound 67, 3-isopropyl-N-[[2-(trifluoromethyl)-1H-indol-5-yl]methyl]isoxazole-5-carboxamide] | 6.1 | > 50 | 5.3 |  |
| O=C(NCc1ccc2[nH]c(C(F)(F)F)cc2c1)c1ccc(C(F)(F)F)nc1 [Compound C3, 6-Trifluoromethyl-N-(2-trifluoromethyl-1H-indol-5-ylmethyl)-nicotinamide, reference compound] |  | 17 | 46 |  |
| Cc1cc2cc(CNC(=O)c3ccc(C)s3)ccc2[nH]1 [Compound 24, 5-methyl-N-[(2-methyl-1H-indol-5-yl)methyl]thiophene-2-carboxamide] | 0.34 | > 50 | 5 |  |
| Cc1cc2cc([C@@H](C)NC(=O)c3cnn(CC(F)(F)F)c3)ccc2[nH]1 [Compound 86, N-[(1R)-1-(2-methyl-1H-indol-5-yl)ethyl]-1-(2,2,2-trifluoroethyl)pyrazole-4-carboxamide] | > 20 |  |  | significantly better NNR PAM activity |
| Cc1cc(C(=O)N[C@H](C)c2ccc3[nH]c(C)cc3c2)sn1 [Compound 47, 3-methyl-N-[(1R)-1-(2-methyl-1H-indol-5-yl)ethyl]isothiazole-5-carboxamide] | > 20 |  |  | significantly better NNR PAM activity |
| Cc1cc(C(=O)N[C@H](C)c2ccc3[nH]c(C)cc3c2)on1 [Compound 61, 3-methyl-N-[(1R)-1-(2-methyl-1H-indol-5-yl)ethyl]isoxazole-5-carboxamide] | 2.33 |  | -5 |  |
| Cc1cc2cc(CNC(=O)c3cnc(C)s3)ccc2[nH]1 [Compound 35, 2-methyl-N-[(2-methyl-1H-indol-5-yl)methyl]thiazole-5-carboxamide] | 2.45 |  | 7.5 |  |
| Cc1ncc(C(=O)NCc2ccc3[nH]c(C(F)(F)F)cc3c2)s1 [Compound 66, 2-methyl-N-[[2-(trifluoromethyl)-1H-indol-5-yl]methyl]thiazole-5-carboxamide] | 8.8 | > 50 | 3.7 |  |
| Cc1cc2cc(CNC(=O)c3cnn(C)c3)ccc2[nH]1 [Compound 29, 1-methyl-N-[(2-methyl-1H-indol-5-yl)methyl]pyrazole-4-carboxamide] | 9.25 | > 50 | 4 |  |
| N#Cc1ccc(C(=O)NCc2ccc3[nH]c(C(F)(F)F)cc3c2)cn1 [Compound C4, 6-Cyano-N-(2-trifluoromethyl-1H-indol-5-ylmethyl)-nicotinamide, reference compound] |  | > 50 | 15 |  |
| Cc1cc2cc(CNC(=O)c3cc(C(C)C)no3)ccc2[nH]1 [Compound 34, 3-isopropyl-N-[(2-methyl-1H-indol-5-yl)methyl]isoxazole-5-carboxamide] | 0.9 |  | 1 | significantly better NNR PAM activity |
| O=C(NCc1ccc2[nH]c(C(F)(F)F)cc2c1)c1cnn(CC(F)(F)F)c1 [Compound 40, 1-(2,2,2-trifluoroethyl)-N-[[2-(trifluoromethyl)-1H-indol-5-yl]methyl]pyrazole-4-carboxamide] | 3.5 | > 50 | 2.4 |  |
| Cc1cc2cc(CNC(=O)c3occc3C)ccc2[nH]1 [Compound 1, 3-methyl-N-[(2-methyl-1H-indol-5-yl)methyl]furan-2-carboxamide] | 2.7 | > 50 | 2 |  |
